Experiments:
[1] = at this field strength (4.7 T); cited from earlier work
[2] = Free Gd concentration by CHELEX solid phase extraction and ICP-MS; assay type: physicochemical; conditions: CHELEX solid phase extraction, magnetic sector ICP-MS
Excerpt: After considering other alternatives, we decided to determine free Gd concentration by selective chelation and separation of the free Gd. We separated the Gd-DO3A-404 complex from free Gd (III) ion by CHELEX® solid phase extraction (as described by Raju, et al., J. Anal. At. Spectrom. 25 (2010), 1573-1580). Specifically, using a CHELEX® solid phase extraction column comprising an immobilized ligand (iminodiacetate) with very high affinity for free ion species of multi-valent transition and rare-earth metals, Gd was retained and then eluted using a known ratio of chelated Gd-DO3A-404 and acid-digested Gd-DO3A-404. The sample was the analyzed by magnetic sector ICP-MS to determine the concentration of free Gd.

[3] = MR relaxivity (r1, r2) at 4.7 T; assay type: physicochemical
Procedure: For initial studies, relaxivity was measured at 4.7 T. Longitudinal relaxivity, which is defined by the linear relationship between R1 relaxation rate and concentration, was measured using an inversion recovery spin echo sequence.
Higher relaxivity results in brighter signal on a T1-weighted image, and thus indicates greater T1-weighted signal enhancement potential. […]
Similarly, by plotting R2 versus concentration at five different concentrations of the Gd-DOTA-404 agent and determining the equation of the resulting line (see FIG. 3, right panel), we calculated a transverse relaxivity in plasma of 20.4 s−1/mM.

[4] = test system: flank A549 tumor (human non small cell lung cancer) xenograft; assay: In vivo MRI of flank A549 xenograft mice; parameters: species or system mouse
Procedure: For proof-of-concept in vivo imaging of tumor uptake of the Gd-DO3A-404 agent, nude athymic mouse with a flank A549 tumor (non small cell lung cancer) xenograft was scanned. […] Mice were anesthetized and scanning performed prior to contrast administration and at 1, 4, 24, 48, and 72 hours following contrast delivery. Imaging was performed on a 4.7 T Varian preclinical MRI scanner with a volume quadrature coil. T1-weighted images were acquired at all imaging time points using a fast spin echo scan with the following pulse sequence parameters: repetition time (TR)=206 ms, echo spacing=9 ms, echo train length=2, effective echo time (TE)=9 ms, 10 averages, with a 40×40 mm^2 field of view, 192×192 matrix, 10 slices of thickness lmm each.

[5] = In vivo biodistribution by T1-weighted SPGR MRI of the abdomen; parameters: species or system mouse; conditions: 2.5 mg intravenous
Procedure: In this example, we determined the in vivo biodistribution of the Gd-DO3A-404 after the contrast agent was administered (see Example 5). During the course of performing the experiments described in Example 4, we also acquired T1-weighted spoiled gradient (SPGR) images in the abdomen of the mice, to observe biodistribution. Abdominal cross-sections imaged included the myocardium (FIGS. 8-12, top image), the liver (FIGS. 8-12, center image), and a kidney (FIGS. 8-12, bottom image). Images are shown pre-contrast (FIG. 8), and at one hour (FIG. 9), 24 hours (FIG. 10), four days (FIG. 11) and seven days post-contrast (FIG. 12).

[6] = test system: orthotopic glioblastoma stem cell line 12.6; assay: Brain tumor uptake by MRI in orthotopic glioblastoma model; assay type: in vivo, mouse
Procedure: To investigate the use of Gd-DO3A-404 to detect tumors and metastases in situ, in particular, in the brain, we created an orthotopic glioblastoma model using cancer stem cells injected into the brain. To create the model, brains of mice were injected with cells from orthotopic glioblastoma stem cell line 12.6. After sufficient tumor growth, monitored with T2-weighted MRI, we imaged subjects pre-contrast and after delivery (24-72 hours) of two different doses of Gd-DO3A-404 (2.5 or 3.7 mg; ˜0.12−0.18 mmole/kg).

A549 flank tumor = assay: Tissue biodistribution by SF-ICPMS in A549-flank bearing mice; assay type: in vivo, mouse; conditions: 72 hours after administration; FIG. 16
Procedure: In this extension of Example 6, we further examined the in vivo biodistribution of Gd-DO3A-404 after it is administered. Specifically, tissue biodistribution was measured in A549-flank bearing mice 72 hours after administration of Gd-DO3A-404. Nude athymic mice were sacrificed, perfused and tissues were collected and quantitated for Gd by high-resolution (magnetic-sector) inductively-coupled plasma mass spectrometry (SF-ICPMS). n=3 mice.

[7] = test system: Alpha-beta crystalline overexpressing mice (triple negative breast cancer model); assay: MRI uptake in triple-negative breast cancer model; assay type: in vivo, mouse; conditions: over 48 hours post-administration; FIG. 17
Procedure: Alpha-beta crystalline overexpressing mice (a triple negative breast cancer model) underwent MR imaging pre administration and 24 hours and 48 hours post-administration of […] (n=4).

[8] = test system: orthotopic U87 xenografts; assay: MRI uptake in orthotopic U87 xenografts; assay type: in vivo, mouse; conditions: NOD-SCID mice; 24 and 48 hours post administration; FIG. 18 left
Procedure: NOD-SCID mice with orthotopic U87 xenografts were imaged pre-administration, 24 hours, and 48 hours post administration of Gd-DO3A-404.

[9] = test system: Orthotopic GSC 115 (human glioma stem cell model); assay: MRI uptake in orthotopic GSC 115 model; assay type: in vivo; conditions: 24 hours post administration; FIG. 18 right
Procedure: Orthotopic GSC 115 was imaged at 24 hours post administration of Gd-DO3A-404. GSC is a human glioma stem cell model which was isolated from a human glioma patient.

[10] = test system: flank U87 (human glioma) xenograft; assay: Simultaneous PET/MR imaging of U87 flank xenograft rat; assay type: in vivo
Procedure: Simultaneous imaging was performed using a clinical Pet/MRI scanner. ^64Cu-DO3A-404 has the same structure as Gd-DO3A-404, except that ^64Cu, a positron emitting radionuclide, is chelated to the chelating moiety instead of Gd. ^64Cu-DO3A-404 was synthesized (and can be synthesized using the methods disclosed herein; see, e.g., Example 1). Both the ^64Cu-DO3A-404 and Gd-DO3A-404 chelates were injected simultaneously into a rat with a flank U87 (human glioma) xenograft.
T1-weighted scans of the U87 flank xenograft were obtained using the clinical 3.0 T PET/MR. Rats were imaged pre- and 24 hours post-administration of the Gd-DO3A-404.
Simultaneous PET/MR scans of the U87-flank bearing rat 24 hours post-simultaneous administration of both Gd-DO3A-404 (the MRI contrast agent) and ^64Cu-DO3A-404 (the PET contrast agent) were obtained.

[11] = test system: flank U87 (human glioma) tumor; assay: In vivo MRI of flank U87 xenograft mice
Procedure: To test uptake and retention in rodent models of human cancer, flank xenografts were established in mice for two distinct tumor types, A549 (human non small cell lung cancer, NSCLC) and U87 (human glioma). N=3 for each model. For pre-contrast imaging, T1-W images of the tumor and abdomen (FIG. 4; 2 leftmost images) and T1 maps of the tumor were obtained.
At time zero (“contrast”), 2.5 mg of Gd-DO3A-404 (˜12 mmol/kg body mass) was delivered into the mice by intravenous injection. Animals were scanned pre-contrast and at various time points between one hour and seven days post-contrast (after one hour, 24 hours, 48 hours, three days, four days and seven days). T1 maps of the tumor were acquired for each time point, along with T1-weighted images of the tumor and the abdomen (see FIGS. 4 and 5).
We the quantified the tumor to muscle ratio and compare it to baseline scans.

CNC[C@H](O)[C@@H](O)[C@H](O)[C@H](O)CO.O=C([O-])CN1CCN(CC(=O)[O-])CCN(CC(=O)O)CCN(CC(=O)[O-])CC1.[Gd+3] [DOTAREM®]
relaxivities of clinical T1 shortening contrast agents [1]: 2 to 3 s⁻¹ mM⁻¹

C[N+](C)(C)CCOP(=O)([O-])OCCCCCCCCCCCCCCCCCCc1ccc(NC(=O)CN2CCN(CC(=O)[O-])CCN(CC(=O)[O-])CCN(CC(=O)[O-])CC2)cc1.[Gd+3] [Gd-DO3A-404]
free Gd concentration [2]: 0.081% | Longitudinal relaxivity (r1) ([3]; in excipient): 5.84 s⁻¹ mM⁻¹ | Longitudinal relaxivity (r1) ([3]; in plasma): 5.74 s⁻¹ mM⁻¹ | Longitudinal relaxivity (r1) ([3]; in saline): 5.68 s⁻¹ mM⁻¹ | tumor to muscle T1-weighted signal ratio following delivery ([4]; 2.5 mg intravenous, A549, versus pre-contrast, FIG. 6): approximately doubled | time of maximum tumor uptake ([4]; 2.5 mg intravenous, NSCLC model, FIG. 4): 24-48 hours post-contrast | duration of tumor uptake ([4]; 2.5 mg intravenous, NSCLC model, FIG. 5): maintained over several days | MRI imaging of the tumor (T1-weighted enhancement) ([4]; 2.7 mg via tail vein injection, scans 1-72 hours, FIG. 2): significantly enhanced by 24 hours post-injection | tumor R1 relaxation rate ([4]; A549, 48 hours post-contrast versus pre-contrast, FIG. 7): significantly increased | P-kinetic profile [5]: including hepatobiliary excretion, that is similar to that of related alkylphosphocholine analogs | circulation in the myocardium and blood pool ([5]; FIGS. 8-12): circulates for nearly up to a day | clearance from liver and kidney ([5]; up to seven days, FIGS. 8-12): substantially cleared over time, with more rapid clearance occurring through the liver, and more prolonged clearance occurring through the kidney | brain tumor uptake ([6]; increased dose 3.7 mg, FIG. 15 bottom panel): uptake in one subject | brain tumor uptake ([6]; lower dose 2.5 mg, FIG. 15 upper panel): no brain uptake was observed | tissue biodistribution (Gd by SF-ICPMS) (A549 flank tumor): selectively taken up by tumor tissue | uptake in breast cancer tissue by MRI [7]: taken up by and localized to the breast cancer tissue | tumor uptake by T1-weighted MRI [8]: differentially taken up by the tumor tissue | tumor uptake by T1-weighted MRI [9]: differentially taken up by the tumor tumor tissue | tumor uptake by T1-weighted MR (clinical 3.0 T PET/MR) ([10]; 24 hours post-administration, FIG. 19): selective tumor uptake | tumor enhancement in MRI images (simultaneous PET/MR) ([10]; 24 hours post-simultaneous administration, FIG. 20): enhanced enhances in both the T1 and T2 MRI images | tumor to muscle T1-weighted signal ratio following delivery ([11]; 2.5 mg intravenous, U87, versus pre-contrast, FIG. 6): approximately doubled | onset of tumor uptake ([11]; 2.5 mg intravenous, U87 model, FIG. 4): already observable at one hour after delivery | level and duration of tumor uptake compared with NSCLC model ([11]; 2.5 mg intravenous, U87 model, FIG. 5): appeared to reach higher levels and was maintained for a longer time period | tumor R1 relaxation rate ([11]; U87, 48 hours post-contrast versus pre-contrast, FIG. 7): significantly increased

Source: patent publication US12564635B2, “Long-lived gadolinium based tumor targeted imaging and therapy agents” (WISCONSIN ALUMNI RESEARCH FOUNDATION, priority 2015, dated 2026)
